Test results from patent US11420970B1 (NOVARTIS AG, priority 2019, dated 2022).
Where two headings read alike, the source gives them in different places.

What was measured:
[1] = system: cellular H3K36me2 level in multiple myeloma cell line KMS11 (t(4;14)+); assay: H3K36me2 cellular ELISA assay in KMS11-Par line; format: cell-based; conditions: Homo sapiens, KMS-11, ELISA, read-out: H3K36me2 ELISA in KMS11-Par
Method in brief: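 After 72 h compound exposure, HCl-extracted histones from KMS11 (t(4;14)+) cells were probed by ELISA for H3K36me2 against total H3 with a chemiluminescence read-out. Cells were plated at 1,250/well in Opti-MEM plus B-27 and N2 the day before. A parallel CellTiter-Glo plate tracked viability.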

NSD2 [1-1365] = NSD2 [1-1365] (Homo sapiens (Human), UniProt O96028); assay: LC-MS/MS-based NSD2 enzymatic assay (SAH production); format: biochemical; conditions: read-out: NSD2 IC50
Sequence of NSD2 [1-1365] (O96028 whole entry): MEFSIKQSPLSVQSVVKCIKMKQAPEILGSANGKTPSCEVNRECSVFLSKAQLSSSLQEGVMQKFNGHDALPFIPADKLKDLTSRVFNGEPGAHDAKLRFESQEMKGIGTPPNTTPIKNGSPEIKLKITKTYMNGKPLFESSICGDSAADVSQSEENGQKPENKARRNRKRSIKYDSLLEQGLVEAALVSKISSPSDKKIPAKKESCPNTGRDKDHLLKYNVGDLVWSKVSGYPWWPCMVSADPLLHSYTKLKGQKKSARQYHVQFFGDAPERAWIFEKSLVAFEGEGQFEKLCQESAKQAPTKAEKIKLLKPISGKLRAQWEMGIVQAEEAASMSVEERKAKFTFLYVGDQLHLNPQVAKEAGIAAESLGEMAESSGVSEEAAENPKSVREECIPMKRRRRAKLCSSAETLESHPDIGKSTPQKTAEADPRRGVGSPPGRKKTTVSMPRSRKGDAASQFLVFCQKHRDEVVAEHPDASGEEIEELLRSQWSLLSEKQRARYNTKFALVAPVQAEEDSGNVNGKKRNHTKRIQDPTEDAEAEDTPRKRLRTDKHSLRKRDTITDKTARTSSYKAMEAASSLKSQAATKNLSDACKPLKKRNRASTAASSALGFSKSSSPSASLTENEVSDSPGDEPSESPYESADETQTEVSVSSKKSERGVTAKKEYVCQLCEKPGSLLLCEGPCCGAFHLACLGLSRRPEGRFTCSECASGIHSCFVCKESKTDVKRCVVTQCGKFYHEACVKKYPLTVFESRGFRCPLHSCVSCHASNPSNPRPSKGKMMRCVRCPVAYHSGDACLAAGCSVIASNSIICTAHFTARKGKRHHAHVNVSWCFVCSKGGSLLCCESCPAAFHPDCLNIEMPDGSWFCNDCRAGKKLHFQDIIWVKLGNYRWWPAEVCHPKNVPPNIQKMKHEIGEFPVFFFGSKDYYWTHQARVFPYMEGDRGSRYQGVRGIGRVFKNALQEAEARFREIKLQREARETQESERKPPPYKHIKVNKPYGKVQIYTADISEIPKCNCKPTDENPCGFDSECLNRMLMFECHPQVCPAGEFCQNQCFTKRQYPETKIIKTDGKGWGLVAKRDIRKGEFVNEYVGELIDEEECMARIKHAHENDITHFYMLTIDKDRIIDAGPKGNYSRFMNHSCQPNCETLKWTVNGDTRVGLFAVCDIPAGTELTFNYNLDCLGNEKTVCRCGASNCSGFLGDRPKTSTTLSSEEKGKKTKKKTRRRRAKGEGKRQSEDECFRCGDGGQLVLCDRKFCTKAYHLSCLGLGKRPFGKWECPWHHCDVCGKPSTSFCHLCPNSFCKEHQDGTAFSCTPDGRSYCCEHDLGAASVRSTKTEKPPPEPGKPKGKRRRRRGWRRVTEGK
Method in brief: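 SAH formed was measured by LC-MS/MS using d4-SAH as internal standard and an SAH calibration curve. Compounds were preincubated 20 min with NSD2 [1-1365] and SAM; mouse-liver nucleosome then started a 90 min room-temperature reaction (8 nM enzyme, 1 μM SAM, 400 nM nucleosome final, pH 8.0), stopped with TFA.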

[2] = system: cellular H3K36me2 level in thyroid carcinoma cell line CGTH-W-1 (NSD2 E1099K); assay: H3K36me2 cellular ELISA assay in CGTH-W-1 line; format: cell-based; conditions: Homo sapiens, CGTH-W-1, 72 h, read-out: H3K36me2 ELISA in CGTH-W-1
Method in brief: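 After 72 h compound treatment of NSD2 E1099K-mutant CGTH-W-1 cells, H3K36me2 and total H3 were quantified by ELISA with chemiluminescent read-out. A parallel-seeded plate gave cell viability by CellTiter-Glo.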

[3] = KMS11-Par line (t(4;14)+), 72 hours treatment
[4] = NSD2 biochemical activity, class symbols

Structure (SMILES)	IC50 [1, 3]	IC50 (NSD2 [1-1365]; [4])	IC50 [2]	IC50 ([1]; KMS11-Par line, 72 hours)	IC50 (NSD2 [1-1365])
Nc1ncnc2c1ncn2Cc1cc(-c2ccc(Cl)c(F)c2)ncc1N1CCC[C@](N)([C@H](O)C(F)F)C1 [Example 152, (S)-1-((R)-3-amino-1-(4-((6-amino-9H-purin-9-yl)methyl)-6-(4-chloro-3-fluorophenyl)pyridin-3-yl)piperidin-3-yl)-2,2-difluoroethan-1-ol]	1.77 µM	0.01 to 1 µM	0.0687 µM	–	–
Nc1ncnc2c1ncn2Cc1cc(-c2ccc(OC(F)F)cc2F)ncc1N1CCC[C@](N)([C@H](O)C(F)F)C1 [Example 153, (S)-1-((R)-3-amino-1-(4-((6-amino-9H-purin-9-yl)methyl)-6-(4-(difluoromethoxy)-2-fluorophenyl)pyridin-3-yl)piperidin-3-yl)-2,2-difluoroethan-1-ol]	5.08 µM	0.01 to 1 µM	0.217 µM	–	–
Nc1ncnc2c1ncn2Cc1cc(-c2cc(F)cc(C(F)F)c2F)ncc1N1CCC[C@](N)([C@@H](O)C(F)F)C1 [Example 154, (R)-1-((R)-3-amino-1-(4-((6-amino-9H-purin-9-yl)methyl)-6-(3-(difluoromethyl)-2,5-difluorophenyl)pyridin-3-yl)piperidin-3-yl)-2,2-difluoroethan-1-ol]	9.11 µM	0.01 to 1 µM	2.93 µM	–	–
Nc1ncnc2c1ncn2Cc1cc(-c2ccc(F)cn2)ncc1N1CCC[C@](N)([C@@H](O)C(F)F)C1 [Example 155, (R)-1-((R)-3-amino-1-(4-((6-amino-9H-purin-9-yl)methyl)-5′-fluoro-[2,2′-bipyridin]-5-yl)piperidin-3-yl)-2,2-difluoroethan-1-ol]	16.4 µM	0.01 to 1 µM	1.17 µM	–	–
Nc1ncnc2c1ncn2Cc1cc(-c2cc(F)c(F)cc2F)ncc1N1CCC[C@](N)([C@@H](O)C(F)F)C1 [Example 156, (R)-1-((R)-3-amino-1-(4-((6-amino-9H-purin-9-yl)methyl)-6-(2,4,5-trifluorophenyl)pyridin-3-yl)piperidin-3-yl)-2,2-difluoroethan-1-ol]	0.574 µM	0.001 to 0.01 µM	0.041 µM	–	–
Nc1ncnc2c1ncn2Cc1cc(-c2cc(F)c(F)cc2F)ncc1N1CCC[C@](N)([C@H](O)C(F)F)C1 [Example 157, (S)-1-((R)-3-amino-1-(4-((6-amino-9H-purin-9-yl)methyl)-6-(2,4,5-trifluorophenyl)pyridin-3-yl)piperidin-3-yl)-2,2-difluoroethan-1-ol]	1.31 µM	0.001 to 0.01 µM	0.385 µM	–	–
Nc1ncnc2c1ncn2Cc1cc(-c2ccc(F)cc2C(F)F)ncc1N1CCC[C@](N)([C@@H](O)C(F)F)C1 [Example 158, (R)-1-((R)-3-amino-1-(4-((6-amino-9H-purin-9-yl)methyl)-6-(2-(difluoromethyl)-4-fluorophenyl)pyridin-3-yl)piperidin-3-yl)-2,2-difluoroethan-1-ol]	0.802 µM	0.001 to 0.01 µM	0.1 µM	–	–
Nc1ncnc2c1ncn2Cc1cc(-c2ccc(F)cc2C(F)F)ncc1N1CCC[C@](N)([C@H](O)C(F)F)C1 [Example 159, (S)-1-((R)-3-amino-1-(4-((6-amino-9H-purin-9-yl)methyl)-6-(2-(difluoromethyl)-4-fluorophenyl)pyridin-3-yl)piperidin-3-yl)-2,2-difluoroethan-1-ol]	1.13 µM	0.001 to 0.01 µM	0.14 µM	–	–
COc1cc(F)c(-c2cc(Cn3cnc4c(N)ncnc43)c(N3CCC[C@](N)([C@@H](O)C(F)F)C3)cn2)cc1F [Example 160, (R)-1-((R)-3-amino-1-(4-((6-amino-9H-purin-9-yl)methyl)-6-(2,5-difluoro-4-methoxyphenyl)pyridin-3-yl)piperidin-3-yl)-2,2-difluoroethan-1-ol]	0.434 µM	0.001 to 0.01 µM	0.035 µM	–	–
COc1cc(F)c(-c2cc(Cn3cnc4c(N)ncnc43)c(N3CCC[C@](N)([C@H](O)C(F)F)C3)cn2)cc1F [Example 161, (S)-1-((R)-3-amino-1-(4-((6-amino-9H-purin-9-yl)methyl)-6-(2,5-difluoro-4-methoxyphenyl)pyridin-3-yl)piperidin-3-yl)-2,2-difluoroethan-1-ol]	0.502 µM	0.001 to 0.01 µM	0.073 µM	–	–
COc1ccc(-c2cc(Cn3cnc4c(N)ncnc43)c(N3CCC[C@](N)([C@@H](O)C(F)F)C3)cn2)c(C(F)F)c1 [Example 162, (R)-1-((R)-3-amino-1-(4-((6-amino-9H-purin-9-yl)methyl)-6-(2-(difluoromethyl)-4-methoxyphenyl)pyridin-3-yl)piperidin-3-yl)-2,2-difluoroethan-1-ol]	0.44 µM	0.001 to 0.01 µM	0.086 µM	–	–
COc1ccc(-c2cc(Cn3cnc4c(N)ncnc43)c(N3CCC[C@](N)([C@H](O)C(F)F)C3)cn2)c(C(F)F)c1 [Example 163, (S)-1-((R)-3-amino-1-(4-((6-amino-9H-purin-9-yl)methyl)-6-(2-(difluoromethyl)-4-methoxyphenyl)pyridin-3-yl)piperidin-3-yl)-2,2-difluoroethan-1-ol]	1.85 µM	0.001 to 0.01 µM	0.204 µM	–	–
COc1ccc(-c2cc(Cn3cnc4c(N)ncnc43)c(N3CCC[C@](N)([C@H](O)C(F)F)C3)cn2)c(Cl)c1 [Example 168, (S)-1-((R)-3-amino-1-(4-((6-amino-9H-purin-9-yl)methyl)-6-(2-chloro-4-methoxyphenyl)pyridin-3-yl)piperidin-3-yl)-2,2-difluoroethan-1-ol]	–	–	0.997 µM	4.78 µM	0.01 to 1 µM
COc1ccc(-c2cc(Cn3cnc4c(N)ncnc43)c(N3CCC[C@](N)([C@@H](O)C(F)F)C3)cn2)c(Cl)c1 [Example 169, (R)-1-((R)-3-amino-1-(4-((6-amino-9H-purin-9-yl)methyl)-6-(2-chloro-4-methoxyphenyl)pyridin-3-yl)piperidin-3-yl)-2,2-difluoroethan-1-ol]	–	–	0.426 µM	2.99 µM	0.01 to 1 µM
Nc1ncnc2c1ncn2Cc1cc(-c2cc(F)c(F)cc2C(F)F)ncc1N1CCC[C@](N)([C@@H](O)C(F)F)C1 [Example 170, (R)-1-((R)-3-amino-1-(4-((6-amino-9H-purin-9-yl)methyl)-6-(2-(difluoromethyl)-4,5-difluorophenyl)pyridin-3-yl)piperidin-3-yl)-2,2-difluoroethan-1-ol]	–	–	0.161 µM	1.47 µM	0.01 to 1 µM
Nc1ncnc2c1ncn2Cc1cc(-c2cc(F)c(F)cc2C(F)F)ncc1N1CCC[C@](N)([C@H](O)C(F)F)C1 [Example 171, (S)-1-((R)-3-amino-1-(4-((6-amino-9H-purin-9-yl)methyl)-6-(2-(difluoromethyl)-4,5-difluorophenyl)pyridin-3-yl)piperidin-3-yl)-2,2-difluoroethan-1-ol]	–	–	0.886 µM	5.52 µM	0.01 to 1 µM
Nc1ncnc2c1ncn2Cc1cc(-c2ccc(F)c(F)c2F)ncc1N1CCC[C@](N)([C@@H](O)C(F)F)C1 [Example 172, (R)-1-((R)-3-amino-1-(4-((6-amino-9H-purin-9-yl)methyl)-6-(2,3,4-trifluorophenyl)pyridin-3-yl)piperidin-3-yl)-2,2-difluoroethan-1-ol]	–	–	1.2 µM	8.93 µM	0.01 to 1 µM
COc1cc(F)ccc1-c1cc(Cn2cnc3c(N)ncnc32)c(N2CCC[C@](N)([C@H](O)C(F)F)C2)cn1 [Example 173, (S)-1-((R)-3-amino-1-(4-((6-amino-9H-purin-9-yl)methyl)-6-(4-fluoro-2-methoxyphenyl)pyridin-3-yl)piperidin-3-yl)-2,2-difluoroethan-1-ol]	–	–	1.04 µM	12.8 µM	0.01 to 1 µM
COc1cc(F)ccc1-c1cc(Cn2cnc3c(N)ncnc32)c(N2CCC[C@](N)([C@@H](O)C(F)F)C2)cn1 [Example 174, (R)-1-((R)-3-amino-1-(4-((6-amino-9H-purin-9-yl)methyl)-6-(4-fluoro-2-methoxyphenyl)pyridin-3-yl)piperidin-3-yl)-2,2-difluoroethan-1-ol]	–	–	1.16 µM	10.6 µM	0.01 to 1 µM
Nc1ncnc2c1ncn2Cc1cc(-c2ccc(F)c(Cl)n2)ncc1N1CCC[C@](N)([C@H](O)C(F)F)C1 [Example 175, (S)-1-((R)-3-amino-1-(4-((6-amino-9H-purin-9-yl)methyl)-6′-chloro-g-fluoro-[2,2′-bipyridin]-5-yl)piperidin-3-yl)-2,2-difluoroethan-1-ol]	–	–	0.534 µM	11.3 µM	0.01 to 1 µM
Nc1ncnc2c1ncn2Cc1cc(-c2ccc(F)c(Cl)n2)ncc1N1CCC[C@](N)([C@@H](O)C(F)F)C1 [Example 176, (R)-1-((R)-3-amino-1-(4-((6-amino-9H-purin-9-yl)methyl)-6′-chloro-5′-fluoro-[2,2′-bipyridin]-5-yl)piperidin-3-yl)-2,2-difluoroethan-1-ol]	–	–	0.953 µM	8.97 µM	0.01 to 1 µM
